In the METLIN SMRT retention time set (Domingo-Almenara et al. 2019) one finds RP-LC retention time data, which are given here for 79 molecules.

Molecules are shown by their SMILES.

This data set can be described thus: gradient 5% acetonitrile 3 min, to 50% in 2 min, to 85% in 15 min, held 3 min, 100 µL/min. Conditions: column: Zorbax Extend-C18 2.1 x 50 mm; eluents: water / acetonitrile, 0.1% formic acid. In outline:
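Each retention time is based on an adduct peak selected computationally and verified by manual inspection. Measurements used HPLC–quadrupole time-of-flight mass spectrometry in positive and negative ionization mode on mixtures of ~100 pure standards. Chromatography ran on a Zorbax Extend-C18 column (2.1 × 50 mm, 1.8 μm) at 100 μL/min with water and acetonitrile, each containing 0.1% formic acid, and dead and dwell volumes of 40 μL and 900 μL.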
The molecule `O=C(NCCCN1CCCC1=O)c1csc(N2CCN(c3ccc(F)cc3)CC2)n1` displayed an RP-LC retention time of 714 s.
The figure for `CCOc1ccc(C(=O)N2CCC3(CC2)NC(=O)c2ccc(F)cc2N3C)cc1` is 767 s.
`Cc1oc2c(c1C(=O)NC(C)c1ccccc1)C1=NC(C)(C)CN1C=N2` (centres undefined) came in with an RP-LC retention time of 653 s.
Take `O=C(Cn1nc(Cc2ccncc2)c2ccccc2c1=O)N1CCN(C(=O)c2ccco2)CC1`: the RP-LC retention time was 582 s.
`Cn1nc(C(=O)N2CCC(Nc3cccnc3)C2)c2ccccc21` (centres undefined) had an RP-LC retention time of 781 s.
Regarding `CCOC(=O)C1CCN(c2cc(-n3nc(C)cc3C)ncn2)CC1`, the RP-LC retention time was 1000 s.
The figure for `CCCSc1ncnc2[nH]ncc12` is 837 s.
Molecule `CCN1CCN(C(=O)Cn2cccc2-c2nnc(-c3ccccc3)o2)CC1` returned an RP-LC retention time of 636 s.
In the case of `Cc1nc(C)c(C(=O)NCC23CCCC=C2NC(=O)CC3)s1` (centres undefined), the RP-LC retention time worked out at 633 s.
Next, `COc1ccc(-n2ccn3cc(-c4ccccc4)nc3c2=O)cc1Cl`: 873 s; `CC1CCN(CCCNC(=O)C2CCc3sc(C(=O)N4CCCC4)cc3C2)CC1` (centres undefined): 610 s; `Cc1ccc(NC(=O)Nc2ccc(NC(=O)N3CCCC(C(=O)NC(C)C)C3)cc2)cc1` (centres undefined): 760 s.
The figure for `COc1ccc(N2CCN(Cc3cc(=O)c(OC)cn3CC(=O)NC(C)C)CC2)cc1` is 557 s; for `CCOC(=O)c1c(C)n(Cc2ccco2)c2ccc(O)cc12` it is 854 s; for `Cc1nn(C(C)C(=O)Nc2cccc(Cl)c2)c(=O)c2c(-n3cccc3)n(-c3ccccc3)nc12` (centres undefined) it is 1200 s.
Next, `O=C(Cn1c(=O)oc2ccccc21)NCC1CCN(C(=O)c2ccccc2F)CC1`: 671 s; `O=C(Nc1ccc(-c2nc(-c3ccc(F)cc3)no2)cc1)c1ccco1`: 1100 s.
For the molecule `O=C(Nc1ccccc1Cl)N(CCc1ccccc1)Cc1ccccn1`, the RP-LC retention time is 852 s.
For `COc1ccc(-c2nc3ncccn3c2NCc2ccccc2)cc1OC`, the RP-LC retention time turned out to be 682 s.
Next, `CCN1C(=O)c2cc(C(=O)N3CCN(c4ncccn4)CC3)nn2CC1(C)C(=O)NC1CCCC1` (centres undefined): 691 s; `Cc1ccc(-c2nc(-c3ccc(S(=O)(=O)N4CCC(C(=O)N5CCCC5)CC4)cc3)no2)cc1C`: 1180 s.
The figure for `Cc1nn(CC(=O)NCCCN2CCCC2=O)c(=O)c2cc(-c3ccccc3)nn12` is 684 s.
Next, `O=C(Cn1nc(N2CCSCC2)c2ccccc2c1=O)Nc1ccc2c(c1)OCCO2`: 818 s.
Molecule `COCCOc1cc(=O)n2c(c1C(=O)NC1CCC1)CCOCC2` showed an RP-LC retention time of 575 s.
In turn, `CCOC(=O)c1ccc(OCCC2CCN(c3ccc(C)nn3)CC2)cc1` had an RP-LC retention time of 837 s.
Next, `Cc1ccc(Oc2nccn3c(=O)n(CC(=O)Nc4ccc(C(C)C)cc4)nc23)cc1`: 1030 s.
Next, `CCc1ccc(NC(=O)C2CCCN(S(=O)(=O)c3cn(CC)cn3)C2)cc1` (centres undefined): 753 s; `CC(C)CCC(=O)N1CCC2(CC1)CC(C)(O)CCO2` (centres undefined): 698 s.
The figure for `CN(C)c1ccc(CNC(=O)C2CCN(c3cncnc3N3CCCCC3)CC2)cc1` is 564 s; for `Cc1nn(-c2nc(-c3ccccc3)cs2)c(C)c1CC(=O)Nc1ccc(F)cc1` it is 1130 s.
Molecule `CCn1c(C(=O)Nc2cc(Cl)ccc2C)cc2sc(Cl)cc21` registered an RP-LC retention time of 1310 s.
The figure for `CC(=O)SCc1nc(SCC(=O)Nc2ccccc2C)n[nH]1` is 623 s; for `Cc1cc(C)cc(NC(=O)C2CCCN(S(=O)(=O)c3cn(C(C)C)cn3)C2)c1` (centres undefined) it is 876 s.
`CCc1ccccc1S(=O)(=O)N1CCc2nc(-c3ccc(OC)cc3)ncc2C1` displayed an RP-LC retention time of 1150 s.
Next, `COc1ccc(C(=O)Nc2nccnc2C(=O)NC2CCCCC2)cc1`: 1040 s; `Cc1ccc(Sc2ccc(N3CCC(C(=O)N4CCN(c5ncccn5)CC4)CC3)nn2)cc1`: 741 s; `COc1cc2nc(N3CCCN(C)CC3)nc(NC3CCN(Cc4ccccc4)CC3)c2cc1OC`: 609 s.
The figure for `COc1ccc(S(=O)(=O)N2CCC(C(=O)Nc3ncnc4c3CCC4)CC2)cc1` is 664 s; for `CC1Oc2ccc(-c3csc(NC(=O)c4ccccc4)n3)cc2N(C)C1=O` (centres undefined) it is 970 s; for `COc1cccc(CNC(=O)C2CCN(S(=O)(=O)c3ccc4c(c3)CCCC(=O)N4)CC2)c1` it is 713 s.
The figure for `CCOc1ccc(CNC(=O)c2cc(S(=O)(=O)N3CCCCC3)c(C)n2C)cc1` is 1020 s.
For the molecule `Cc1ccccc1-c1nnc(CSc2nnc(NC(=O)c3cccs3)s2)o1`, the RP-LC retention time was found to be 908 s.
`O=C(c1ccc2cc[nH]c2c1)N1CCN(C(=O)c2nnn3c2COC(c2ccc(Cl)cc2)C3)CC1` (centres undefined) returned an RP-LC retention time of 918 s.
Next, `O=C(NCc1cccc(F)c1)N1CCCC(Cn2cnc3cccnc32)C1` (centres undefined): 652 s; `COC(=O)c1cccc(Nc2c(-c3ccc(N(C)C)cc3)nc3cnccn23)c1`: 776 s; `COc1cc(-c2noc(Cn3ncn4nc(-c5cccs5)cc4c3=O)n2)cc(OC)c1OC`: 983 s.
The figure for `CC(CC(=O)N1CCN(c2ccccc2)CC1)S(=O)(=O)c1ccc2c(c1)CCN2C(=O)C1CC1` (centres undefined) is 866 s; for `Cc1nn(C)c2c(=O)n(CC(=O)NCc3ccc(Br)cc3)ccc12` it is 745 s.
Next, `O=C(c1cc(S(=O)(=O)N2CCCC(C(=O)N3CCOCC3)C2)c[nH]1)N1CCCCCC1` (centres undefined): 696 s.
Take `Cn1nc(-c2nc(C3CC3)no2)c2c1CCN(C(=O)c1c(F)cccc1Cl)C2`: the RP-LC retention time amounted to 837 s.
The figure for `Cc1ccc(C)c(-c2csc(Nc3ccc(Br)cn3)n2)c1` is 1330 s; for `CCOC(=O)c1ccc(NC(=O)Cn2c(=O)n(-c3ccc(F)cc3)c(=O)c3c2cc(C)n3C)cc1` it is 893 s.
The figure for `COCCNC(=O)c1ccc2c(c1)CCCN2S(=O)(=O)c1ccc(Cl)cc1` is 885 s; for `CN(C)C[C@@H]1CN(Cc2ccncc2)C[C@H]1NS(=O)(=O)c1ccc(C#N)cc1` it is 639 s; for `Cc1ccc(NS(=O)(=O)c2cc3c4c(c2)CCC(=O)N4CCC3)cc1C` it is 880 s.
In turn, `COc1ccc(C(=O)Nc2nc(-c3ccc4c(c3)N(C)C(=O)CO4)c(C)s2)cc1` displayed an RP-LC retention time of 967 s.
Next, `O=C(Nc1ccc2c(c1)OCCO2)c1cn(-c2cc(N3CCSCC3)ncn2)cn1`: 832 s.
`O=C(Cn1cccc(-c2nc(-c3ccc(Br)cc3)no2)c1=O)N1CCCc2ccccc21` showed an RP-LC retention time of 1070 s.
The figure for `COc1ccc2nc(-c3ccc(C)c(NS(=O)(=O)c4cc(C)ccc4OC)c3)cn2n1` is 812 s.
The figure for `O=C(NCC1CC1)c1ccc2nc(-c3ccccc3)cn2c1` is 629 s.
The figure for `CCn1c(=O)c(=O)n(CC(=O)NCc2ccc(C)o2)c2cccnc21` is 688 s.
With `CCn1c(N2CCCC(C(=O)NCc3ccccc3F)C2)cc(=O)n(C)c1=O` (centres undefined), the RP-LC retention time stood at 776 s.
The figure for `Cc1ccccc1C(=O)NCCc1c[nH]c2ccc(Cl)cc12` is 889 s; for `CCn1ccc2sc(C)c(C(=O)NCc3ccccc3Cl)c2c1=O` it is 879 s; for `CCOc1cccc2sc(N(CCCN(C)C)C(=O)CN3C(=O)CCC3=O)nc12` it is 559 s.
Next, `CSc1cccc(NC(=O)COc2cccc(-c3nnc4n3CCCC4)c2)c1`: 728 s; `COc1ccc(-c2cc3nn(CC(=O)Nc4ccc(F)cc4)c(=O)n3c(C)n2)cc1`: 914 s; `COc1cccc(-c2noc(Cn3cnc4c(oc5ccccc54)c3=O)n2)c1`: 938 s.
The figure for `CC(NC(=O)C1CCN(S(=O)(=O)c2ccc(Cl)cc2)CC1)C(=O)N1CCCc2ccccc21` (centres undefined) is 945 s.
Consider `COCc1cc2nn(CC(=O)Nc3ccccc3F)c(=O)n2c(-c2ccccc2)n1`, for which the RP-LC retention time was 795 s.
Next, `Cc1ccsc1CCNC(=O)C1CCN(C(=O)c2cc(-c3cccnc3)n[nH]2)CC1`: 625 s.
The figure for `COCc1cc(=O)n(CC(=O)Nc2ccc(F)cc2C)c(N)n1` is 593 s; for `CC1Oc2ccccc2C=C1/C=C1\Oc2cc(OC(=O)N(C)C)ccc2C1=O` (centres undefined) it is 795 s.
`CCCCc1nnc2sc(COc3ccc(C)c(C)c3)nn12` yielded an RP-LC retention time of 1120 s.
Next, `CNC(=O)[C@@H]1C[C@H](Oc2cccnc2)CN1C(=O)c1ccc2ncccc2c1`: 510 s; `NC(=O)Cc1cccc(C(=O)c2ccccc2)c1N`: 734 s.
Regarding `Cc1ccccc1-c1nnc(CSc2nnc(NC(=O)Cc3ccccc3Cl)s2)o1`, the RP-LC retention time worked out at 977 s.
Next, `COc1ccccc1-c1noc(C2CCCN2C(=O)c2cnccn2)n1` (centres undefined): 720 s; `O=C(Nc1cc(-c2ccccn2)no1)c1ccc2c(c1)OCO2`: 772 s.
